Patent US10328030B2, “Compositions and methods of use for treatment of mammalian diseases” (priority 2004, dated 2019)

Legend:
[1] = tested on: NCI-H23 lung cells; experiment: In vitro human tumor screen, 3H-thymidine assay; format: cell-based; settings: positive control, doxorubicin 1 μM
[2] = Metabolic clearance and tolerability of iron dextran, intravenous infusion; set-up: species or system cynomolgus monkeys (Macaca fascicularis); settings: cynomolgus monkey, in vivo
Procedure: Experiments on metabolic clearance rates done on cynomolgus monkeys (species Macaca fascicularis) have shown the safe use of large dosages of elemental iron derived from iron dextran. […] The administered iron dextran remained in the monkey plasma for at least 120 hours, at milligram levels. […] (See, U.S. application Ser. No. 10/888,576 incorporated herein in its entirety.) The monkey model clears the iron dextran from the system much more very rapidly, as compared to humans, because of a higher metabolic rate. Therefore, a longer plasma residence time is anticipated in humans, as has been shown in research, such as, for example, Henderson & Hillman, (1969).
Experiments on metabolic clearance rates done on cynomolgus monkeys (species Macaca fascicularis) have shown the safe use of large dosages of elemental iron derived from iron dextran. […] The monkey model clears the iron dextran from the system much more very rapidly, as compared to humans, because of a higher metabolic rate. Therefore, a longer plasma residence time is anticipated in humans, as has been shown in research, such as, for example, Henderson & Hillman, (1969).

[3] = in vivo; cited from earlier work

Compound | inhibitory effect (in words) [1] | side effects (in words) [2] | time remaining in plasma ([2]; iv) | clearance rate [3] [mg/h] | time to clearance [3] [days]
COc1cccc2c1C(=O)c1c(O)c3c(c(O)c1C2=O)C[C@@](O)(C(=O)CO)C[C@@H]3O[C@H]1C[C@H](N)[C@H](O)[C@H](C)O1 [doxorubicin] | high inhibitory effect |  |  |  | 
iron dextran [Base Compound] |  | few negative side effects, i.e. abdominal swelling | at least 120 hours | 10 to 20 | ≤ 3
